# Results: patent US7482346B2, “Derivatives of alkylpiperazine and alkylhomopiperazine-carboxylates, preparation method thereof and use of same as fatty acid amido hydrolase enzyme inhibitors” (Sanofi-Aventis, priority 2004, dated 2009)
# Where a name gives a salt, the structure may show the parent alone.
# Target: T1, FAAH (fatty acid amide hydrolase) (Mus musculus, UniProt O08914)
# T1 construct: Membrane homogenates are prepared at the time of use by homogenizing the tissues in a Polytron; from tissue; host or cells: mouse brain (minus the cerebellum), membrane homogenate
# T1 sequence (O08914 1-579): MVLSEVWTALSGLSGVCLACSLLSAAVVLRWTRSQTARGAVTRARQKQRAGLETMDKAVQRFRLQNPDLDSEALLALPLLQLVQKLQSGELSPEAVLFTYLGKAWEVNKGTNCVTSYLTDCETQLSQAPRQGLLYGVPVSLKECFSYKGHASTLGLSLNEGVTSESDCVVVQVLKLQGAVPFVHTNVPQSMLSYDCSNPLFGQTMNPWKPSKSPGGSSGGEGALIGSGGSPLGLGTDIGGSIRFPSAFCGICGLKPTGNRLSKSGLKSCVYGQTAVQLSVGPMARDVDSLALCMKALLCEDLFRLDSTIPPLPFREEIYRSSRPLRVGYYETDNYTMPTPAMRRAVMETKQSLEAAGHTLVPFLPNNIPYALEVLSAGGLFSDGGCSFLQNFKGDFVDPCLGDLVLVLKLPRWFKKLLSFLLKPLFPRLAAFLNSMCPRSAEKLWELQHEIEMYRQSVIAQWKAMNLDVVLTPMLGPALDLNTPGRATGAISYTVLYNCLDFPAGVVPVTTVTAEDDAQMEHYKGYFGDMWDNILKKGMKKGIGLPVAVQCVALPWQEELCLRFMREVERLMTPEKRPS
# Assay: radio-enzymatic assay of FAAH inhibition (hydrolysis of anandamide [1-3H ethanolamine])
# Type: biochemical
# Details: mouse brain membrane homogenates; anandamide [1-3H ethanolamine] 10 μM; 15 minutes at 25° C.; read-out: IC50 (concentration inhibiting by 50% the control enzyme activity of FAAH)
# Procedure: The compounds of the invention were subjected to pharmacological tests permitting determination of their inhibitory effect on the enzyme FAAH (fatty acid amide hydrolase).
# Accordingly, mouse brains (minus the cerebellum) are removed and stored at −80° C. Membrane homogenates are prepared at the time of use by homogenizing the tissues in a Polytron in a 10 mM Tris-HCl buffer (pH 8) containing 150 mM NaCl and 1 mM EDTA. The enzyme reaction is subsequently conducted in 70 μl of buffer containing bovine serum albumin without fatty acids (1 mg/ml). In succession, the test compounds, at various concentrations, anandamide [1-^3H ethanolamine] (specific activity: 15-20 Ci/mmol) diluted to 10 μM with cold anandamide, and the membrane preparation (400 μg of frozen tissue per assay) are added. After 15 minutes at 25° C. the enzyme reaction is terminated by adding 140 μl of chloroform/methanol (2:1). The mixture is stirred for 10 minutes and then centrifuged for 15 minutes at 3500 g. An aliquot (30 μl) of the aqueous phase containing the 1-^3H ethanolamine is counted by liquid scintillation.
row,IC50,Compound
1,72 nM,"CNC(=O)COC(=O)N1CCN(CCc2cccc3ccccc23)CC1 [Compound 21, 2-(methylamino)-2-oxoethyl 4-[2-(1-naphthyl)ethyl]piperazine-1-carboxylate]"
2,50 nM,"CNC(=O)COC(=O)N1CCN(CCCc2cccc(-c3ccccc3)c2)CC1 [Compound 48, 2-(methylamino)-2-oxoethyl 4-(3-biphenyl-3-ylpropyl)piperazine-1-carboxylate]"
3,32 nM,"CNC(=O)COC(=O)N1CCN(CCCc2ccc(-c3ccccc3)cc2)CC1 [Compound 49, 2-(methylamino)-2-oxoethyl 4-(3-biphenyl-4-ylpropyl)piperazine-1-carboxylate]"

# Test system: male OFI mice
# Assay: analgesia test: abdominal stretches induced by PBQ (phenylbenzoquinone)
# Type: in vivo, mouse
# Details: dose of 10 mg/kg at 120 minutes, PBQ 2 mg/kg i.p.
# Procedure: The in vivo activity of the compounds of the invention was evaluated in an analgesia test.
# Accordingly, intraperitoneal (i.p.) administration of PBQ (phenylbenzoquinone, 2 mg/kg in a 0.9% sodium chloride solution containing 5% of ethanol) to male OFI mice weighing 25 to 30 g causes abdominal stretches, on average 30 twists or contractions during the period from 5 to 15 minutes after injection. The test compounds are administered orally (p.o.) or intraperitoneally (i.p.) in suspension in Tween 80 at 0.5%, 60 minutes or 120 minutes before the administration of PBQ. […] For example, compounds 49 and 69 of the table reduce by 43% and 47% respectively, the number of stretches induced by PBQ, at a dose of 10 mg/kg at 120 minutes.
row,Compound,reduction of the number of stretches induced by PBQ
1,"CNC(=O)COC(=O)N1CCN(CCCc2ccc(-c3ccccc3)cc2)CC1 [Compound 49, 2-(methylamino)-2-oxoethyl 4-(3-biphenyl-4-ylpropyl)piperazine-1-carboxylate]",43%
2,"CNC(=O)COC(=O)N1CCN(CCCc2cc(-c3ccc(Cl)cc3)no2)CC1 [Compound 69, 2-(methylamino)-2-oxoethyl 4-{3-[3-(4-chlorophenyl)isoxazol-5-yl]propyl}piperazine-1-carboxylate]",47%

# Test system: not given
# Assay: not given
# Details: not given
row,Compound,melting point
1,"CNC(=O)COC(=O)N1CCN(CCc2cc(-c3ccc(Cl)cc3)no2)CC1 [Compound 29, 2-(methylamino)-2-oxoethyl 4-{2-[3-(4-chlorophenyl)isoxazol-5-yl]ethyl}piperazine-1-carboxylate]",130 to 132 °C
2,"CNC(=O)COC(=O)N1CCN(C/C=C/c2ccccc2)CC1 [Compound 85, 2-(methylamino)-2-oxoethyl trans-4-(3-phenylprop-2-en-1-yl)piperazine-1-carboxylate]",109 to 111 °C
3,"NC(=O)COC(=O)N1CCCN(CC#Cc2cccc(C(F)(F)F)c2)CC1 [Compound 99, 2-amino-2-oxoethyl 4-{3-[3-(trifluoromethyl)phenyl]prop-2-yn-1-yl}-1,4-diazepane-1-carboxylate]",102 to 104 °C
4,"CNC(=O)COC(=O)N1CCN(CCOc2ccc(Cl)cc2)CC1 [Compound 130, 2-(methylamino)-2-oxoethyl 4-{2-[(4-chlorophenyl)oxy]ethyl}piperazine-1-carboxylate]",159 to 161 °C

# The remaining lines, values ahead:
row,melting point,Compound
1,212 to 216 °C (dec.),"CNC(=O)COC(=O)N1CCN(C(C)(C)CCc2cccc(-c3ccccc3)c2)CC1 (as salt: HCl) [Compound 50, 2-(methylamino)-2-oxoethyl 4-(3-biphenyl-3-yl-1,1-dimethylpropyl)piperazine-1-carboxylate hydrochloride]"
2,133 to 135 °C,"CNC(=O)COC(=O)N1CCN(CCc2ccc3ccccc3c2)CC1 [Compound 25, 2-(methylamino)-2-oxoethyl 4-(2-naphthalen-2-ylethyl)piperazine-1-carboxylate]"
3,82 to 85 °C,"CNC(=O)COC(=O)N1CCN(CCCc2cccc(-c3cccc(Cl)c3)c2)CC1 [Compound 52, 2-(methylamino)-2-oxoethyl 4-[3-(3′-chlorobiphenyl-3-yl)propyl]piperazine-1-carboxylate]"
